In experiment [1] the test system is MCF-7, epithelial (breast cancer). The format is cell-based. On the procedure: (§1) MCF-7, epithelial (breast cancer), ECACC: 86012803 […] During the amplification step and the assays adherent cells were rinsed with DPBS (Dulbecco's Phosphate Buffered Saline, Sigma D1283) three times and afterward treated for 5 minutes with trypsin ([…]) (Gibco-BRL, 15400054) in solution of DPBS at 37° C., and, once detached, transferred in the culturing medium. No-adherent cells were centrifuged and transferred in the culturing medium. Cells were counted in a Neubauer chamber after labelling with Tripan-Blue. […] Cells were seeded at a density of 10000 cells/well in 100 μl of medium in 96 well plates. […] Controls are the untreated cells. Each experiment was performed in triplicate. Cells were incubated with the compounds at the indicated concentrations during 24-72 h in incubator under CO2 atmosphere at 37° C. […] Stock solution of MTT (475989 Calbiochem) was 5 mg/ml in PBS. 1×.10 μl/well of MTT solution were added and the plate was incubated for 3-4 hr. […] Plates were incubated for 16 h at room temperature under orbital shaking. Absorbance at 570 nm was finally measured. […] The dose/response curve was fitted through the sigmoidal equation dose-response (variable slope) and the IC50 values were calculated as follow: Y=Bottom+(Top−Bottom)/(1+10^{[(LogIC50−X)*HillSlope]},

The test system of experiment [2] is HL-60, promyeloblast (acute myelocytic leukemia, AML). In words: MTT viability assay, HL-60. It counts as cell-based. On the procedure: as §1, with “HL-60, promyeloblast (acute myelocytic leukemia, AML),” for “MCF-7, epithelial (breast cancer),”, “98070106” for “86012803”
For experiment [3], the system named is RPMI-8266, lymphoblast (myeloma). In words: MTT viability assay, RPMI-8266. The format is cell-based. On the procedure:
RPMI-8266, lymphoblast (myeloma), ATCC® CCL155™
(§2) All cell lines were cultured in incubator at 37° C. in RPMI-1640 (Sigma R8758) medium with 10% of fetal bovine serum inactivated (FBS) and 2 mM glutamine (Sigma G7513). During the amplification step cells were centrifuged and transferred into the culturing medium. Cells were counted in a Neubauer chamber after labelling with Tripan-Blue.
(§3) Cells were seeded at a density of 10000 cells/well in 100 μl of medium in 96 well plates. After 24 h, the compounds to be tested were added to calculate the dose/response curve at the starting concentration of 100 μM with serial dilutions (1:1). Controls are the untreated cells. Each experiment was performed in triplicate.
(§4) Cells were incubated with the peptidomimetic compound (S09) at the indicated concentrations during 24-72 h in incubator under CO2 atmosphere at 37° C. Then, cell viability was measured by means of MTT (3-(4,5-dimethylthiazol-2-yl)-2,5-diphenyltetrazolium bromide) assay. Stock solution of MTT (475989 Calbiochem) was 5 mg/ml in PBS. 1×.10 μl/well of MTT solution were added and the plate was incubated for 3-4 hr. The medium was discarded and 100 μl of extracting buffer (PBS 1×, 15% SDS, 50% […] N,N-Dimethylformamide, pH 4.7) were added to each well. Plates were incubated for 16 h at room temperature under orbital shaking. Absorbance at 570 nm was finally measured. As negative control (experiment noise) 3 wells were treated with 20 μl/well of a solution of SDS 10% in H2O.
(§5) Data analysis was performed calculating the percentage of cell viability normalized vs. the values of negative control, which was considered equal to 100%. The dose/response curve was fitted through the sigmoidal equation dose-response (variable slope) and the IC50 values were calculated as follow:
(§6) Y=Bottom+(Top−Bottom)/(1+10^{[(LogIC50−X)*HillSlope]},
(§7) All cell lines were cultured in incubator at 37° C. in RPMI-1640 (Sigma R8758) medium with 10% of fetal bovine serum inactivated (FBS) and 2 mM glutamine (Sigma G7513).
(§8) Cells were seeded at a density of 10,000 cells/well in 100 μl of medium in 96 well plates. After 24 h, the compounds to be tested were added to calculate the dose/response curve at the starting concentration of 40 μM with serial dilutions (1:1). Controls are the untreated cells. Each experiment was performed in triplicate.
as §4, with “compounds” for “compound (S09)”

Experiment [4] has as its system MM1R, lymphoblast (myeloma), resistant to Dexamethasone. On the procedure: MM1R, lymphoblast, (myeloma), ATCC® CRL-2975™, resistant to Dexamethasone
as §2, §3, §4, §5, §6, §7, §8
as §4, with “compounds” for “compound (S09)”

Setting [5] is: MCF7, same protocol as Example 2, Table 6, read-out: Compound (IC50).
The mark [6] stands for this setting: HL-60, same protocol as Example 2, Table 6, read-out: Compound (IC50).

Like-named read-outs stand apart in the source and are kept apart here. Starred links: 1 amine or outer side, 2 acyl side, 3 side chain; linkers in the order of their positions; H or OH if unused. Positions of bridges follow the written chain, without caps; N, C: chain ends. Non-standard residues stand in square brackets, D forms with d. Residues, ends and D or L forms follow the SMILES beside them. No end group written: not given here. ξ: configuration not given here. Biphenyl(4,4'-CH2)2 = c1cc(-c2ccc(C[*:2])cc2)ccc1C[*:1]; ξαMeNle(6-ylidene) = CC(CCCC=[*:3])(N[*:1])C(=O)[*:2]; X1 = CC(CCCCCCC=[*:3])(N[*:1])C(=O)[*:2]

Take `CCc1ccc(/C=C2/SC(=S)NC2=O)cc1` [10058-F4, reference compound]: the IC50 in experiment [1] (MCF7, MTT, incubation 24-72 h, Table 3, read-out: IC50 values) is approximately 52 µM; in experiment [2] (HL-60, MTT, incubation 24-72 h, Table 3, read-out: IC50 values), 54 ± 2 µM.
For the molecule `CC[C@H](C)[C@@H]1NC(=O)[C@H](Cc2ccc(O)cc2)NC(=O)[C@H](C)NC(=O)[C@H]([C@@H](C)O)NC(=O)[C@H](C)NC(=O)[C@H](CCCCN)NC(=O)C(C)(NC(=O)[C@H](CC(C)C)NC(=O)[C@@H](NC(=O)[C@@H](NC(=O)[C@@H](NC(=O)[C@H](CCCCN)NC(=O)[C@@H]2CCCN2C(=O)[C@H](C)N)C(C)C)C(C)C)[C@@H](C)CC)CCCCCCC=CCCCC(C)(C(=O)N[C@@H](CO)C(=O)O)NC1=O` (some centres unmarked) [IDP-S18, APKVVILXKATAYIXS] (H-APKVVIL[X1]KATAYI[ξαMeNle(6-ylidene)]S-OH; staple 8-15; N-terminus and C-terminus assumed), the IC50 in experiment [1] and in experiment [2] was more than 100 µM in each case.
On to `CC[C@H](C)[C@@H]1NC(=O)[C@H](Cc2ccc(O)cc2)NC(=O)[C@H](C)NC(=O)[C@H]([C@@H](C)O)NC(=O)[C@H](C)NC(=O)C(C)(NC(=O)[C@H](CCCCN)NC(=O)[C@H](CC(C)C)NC(=O)[C@@H](NC(=O)[C@@H](NC(=O)[C@@H](NC(=O)[C@H](CCCCN)NC(=O)[C@@H]2CCCN2C(=O)[C@H](C)N)C(C)C)C(C)C)[C@@H](C)CC)CCCCCCC=CCCCC(C)(C(=O)N[C@H](C(=O)O)C(C)C)NC(=O)[C@H](CC(C)C)NC1=O` (some centres unmarked) [IDP-S23, APKVVILKXATAYILXV] (H-APKVVILK[X1]ATAYIL[ξαMeNle(6-ylidene)]V-OH; staple 9-16), for which the IC50 in experiment [1] (setting [5]) and in experiment [2] (setting [6]) was more than 100 µM each time.
As for `CC[C@H](C)[C@H](NC(=O)[C@H](Cc1ccc(O)cc1)NC(=O)C1(C)CCCC=CCCCCCCC(C)(NC(=O)[C@@H](NC(=O)[C@H](CCCCN)NC(=O)[C@@H]2CCCN2C(=O)[C@H](C)N)C(C)C)C(=O)N[C@@H]([C@@H](C)CC)C(=O)N[C@@H](CC(C)C)C(=O)N[C@@H](CCCCN)C(=O)N[C@@H](CCCCN)C(=O)N[C@@H](C)C(=O)N[C@@H]([C@@H](C)O)C(=O)N1)C(=O)N[C@@H](CC(C)C)C(=O)N[C@@H](CO)C(=O)O` (some centres unmarked) [IDP-S21, APKVXILKKATXYILS] (H-APKV[X1]ILKKAT[ξαMeNle(6-ylidene)]YILS-OH; staple 5-12), the IC50 in experiment [1] (setting [5]) and in experiment [2] (setting [6]) was more than 100 µM throughout.
`CC[C@H](C)[C@H](NC(=O)[C@H](Cc1ccc(O)cc1)NC(=O)[C@H](C)NC(=O)[C@@H](NC(=O)[C@H](C)NC(=O)C1(C)CCCC=CCCCCCCC(C)(NC(=O)[C@H](C)N)C(=O)N[C@@H](CCCCN)C(=O)N[C@@H](C(C)C)C(=O)N[C@@H](C(C)C)C(=O)N[C@@H]([C@@H](C)CC)C(=O)N[C@@H](CC(C)C)C(=O)N[C@@H](CCCCN)C(=O)N1)[C@@H](C)O)C(=O)N[C@@H](CC(C)C)C(=O)N[C@@H](CO)C(=O)O` (some centres unmarked) [IDP-S19, AXKVVILKXATAYILS] (H-A[X1]KVVILK[ξαMeNle(6-ylidene)]ATAYILS-OH; staple 2-9): the IC50 in experiment [1] (setting [5]) and in experiment [2] (setting [6]) was more than 100 µM each time.
As to `CC[C@H](C)[C@H](NC(=O)[C@H](Cc1ccc(O)cc1)NC(=O)[C@H](C)NC(=O)[C@@H]1CSCc2ccc(cc2)-c2ccc(cc2)CSC[C@H](NC(=O)[C@H](CCCCN)NC(=O)[C@@H]2CCCN2C(=O)[C@H](C)N)C(=O)N[C@@H](C(C)C)C(=O)N[C@@H]([C@@H](C)CC)C(=O)N[C@@H](CC(C)C)C(=O)N[C@@H](CCCCN)C(=O)N[C@@H](CCCCN)C(=O)N[C@@H](C)C(=O)N1)C(=O)N[C@@H](CC(C)C)C(=O)N[C@@H](CO)C(=O)O` [IDP-P1708161] (H-APKCVILKKACAYILS-OH; linker 4-11 via Biphenyl(4,4'-CH2)2; N-terminus and C-terminus assumed), the IC50 stood at 5 µM in experiment [3] (24 h), 7.5 µM in experiment [3] (72 h), 12.5 µM in experiment [4] (24 h) and 15 µM in experiment [4] (72 h).
Regarding `CC[C@H](C)[C@H](NC(=O)[C@@H](NC(=O)[C@@H](NC(=O)[C@H](CCCCN)NC(=O)[C@@H]1CCCN1C(=O)[C@H](C)N)C(C)C)C(C)C)C(=O)NC1(C)CCCCCCC=CCCCC(C)(C(=O)N[C@@H](CC(C)C)C(=O)N[C@@H](CO)C(=O)O)NC(=O)[C@H](Cc2ccc(O)cc2)NC(=O)[C@H](C)NC(=O)[C@H]([C@@H](C)O)NC(=O)[C@H](C)NC(=O)[C@H](CCCCN)NC(=O)[C@H](CCCCN)NC1=O` (some centres unmarked) [IDP-S17, APKVVIXKKATAYXLS] (H-APKVVI[X1]KKATAY[ξαMeNle(6-ylidene)]LS-OH; staple 7-14; N-terminus and C-terminus assumed), the IC50 in experiment [1] and in experiment [2] was more than 100 µM in each case.
On to “RQIKIWFQNRRMKWKKNELKRAFAALRDQI [Int-HI-S6A-F8, reference compound]”, for which the IC50 in experiment [1] and in experiment [2] was more than 100 µM each time.
With `CC[C@H](C)[C@H](NC(=O)C1(C)CCCC=CCCCCCCC(C)(NC(=O)[C@@H](NC(=O)[C@@H](NC(=O)[C@H](CCCCN)NC(=O)[C@@H]2CCCN2C(=O)[C@H](C)N)C(C)C)C(C)C)C(=O)N[C@@H](CC(C)C)C(=O)N[C@@H](CCCCN)C(=O)N[C@@H](CCCCN)C(=O)N[C@@H](C)C(=O)N[C@@H]([C@@H](C)O)C(=O)N[C@@H](C)C(=O)N1)C(=O)N[C@@H](CC(C)C)C(=O)N[C@@H](CO)C(=O)O` (some centres unmarked) [IDP-S22, APKVVXLKKATAXILS] (H-APKVV[X1]LKKATA[ξαMeNle(6-ylidene)]ILS-OH; staple 6-13; N-terminus and C-terminus assumed), the IC50 in experiment [1] and in experiment [2] was more than 100 µM each time.

Values taken from patent US20200261534A1, “NEW TREATMENTS OF MULTIPLE MYELOMA” (priority 2017, published 2020).
